Assay results as given in ChEMBL document CHEMBL1140248, “3-(1,2,3-Triazol-1-yl)-1-thio-galactosides as small, efficient, and hydrolytically stable inhibitors of galectin-3” (Bioorg Med Chem Lett, 2005).

Legend:
Galectin-3 = Galectin-3 (Mus musculus, UniProt P16110); experiment: Dissociation constant for mouse Galectin-3
[1] = target: Galectin-3 (Mus musculus) (UniProt P16110); experiment: Relative affinity for mouse Galectin-3 compared to D-galactose-methyl-beta-glycoside; format: functional
Galectin-3 (Mus musculus), sequence (P16110 whole entry): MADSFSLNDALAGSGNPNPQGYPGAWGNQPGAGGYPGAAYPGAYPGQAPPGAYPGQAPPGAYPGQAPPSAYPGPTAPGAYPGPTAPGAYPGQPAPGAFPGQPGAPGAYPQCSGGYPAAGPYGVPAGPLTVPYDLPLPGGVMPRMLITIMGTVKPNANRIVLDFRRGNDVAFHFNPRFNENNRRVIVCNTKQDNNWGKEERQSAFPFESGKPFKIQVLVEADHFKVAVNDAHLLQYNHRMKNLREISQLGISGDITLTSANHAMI

Galectin-3, sequence (P16110 whole entry): as above

| Kd (Galectin-3) [µM] | Affinity [1] | Compound |
| --- | --- | --- |
| 272 | 16 | CSC1OC(CO)C(O)C(NC(=O)c2ccc3ccccc3c2)C1O (stereo not drawn) |
| 2690 | 1.7 | CSC1OC(CO)C(O)C(NC(=O)c2ccccc2)C1O (stereo not drawn) |
| – | 20 | LACTOSE, ANHYDROUS |
| 67 | 64 | CS[C@H]1O[C@@H](COC2O[C@@H](OC([C@H](O)CO)[C@H](O)[C@@H](NC(C)=O)C(C)=O)[C@H](O)[C@@H](O)[C@H]2O)[C@H](O)[C@@H](NC(=O)c2ccc3ccccc3c2)[C@@H]1O (stereo partly drawn) |
| > 20000 | < 0.2 | CSC1OC(CO)C(O)C(n2ccnn2)C1O (stereo not drawn) |
| 386 | 12 | CSC1OC(CO)C(O)C(n2cc(C(=O)NCCCO)nn2)C1O (stereo not drawn) |
| 571 | 7.5 | CSC1OC(CO)C(O)C(n2cc(C(=O)NCCN3CCOCC3)nn2)C1O (stereo not drawn) |
| 230 | 19 | CNC(=O)c1cn(C2C(O)C(CO)OC(SC)C2O)nn1 (stereo not drawn) |
| 4400 | 1 | CS[C@H]1O[C@@H](COC2O[C@@H](O)[C@H](O)[C@@H](O)[C@H]2O)[C@H](O)[C@@H](NC(=O)c2ccc3ccccc3c2)[C@@H]1O (stereo partly drawn) |
| 1410 | 3.2 | COC(=O)c1cn(C2C(O)C(CO)OC(SC)C2O)nn1 (stereo not drawn) |
| 4600 | 1 | CCCc1cn(C2C(O)C(CO)OC(SC)C2O)nn1 (stereo not drawn) |
| – | 42 | CSC1OC(CO)C(O)C(n2cc(C(=O)NCc3ccccc3)nn2)C1O (stereo not drawn) |
| 147 | 29 | CSC1OC(CO)C(O)C(n2cc(-c3ccccc3)nn2)C1O (stereo not drawn) |
| 124 | 36 | CCCCNC(=O)c1cn(C2C(O)C(CO)OC(SC)C2O)nn1 (stereo not drawn) |
| 1750 | 2.5 | CSC1OC(CO)C(O)C(n2cc(C3(O)CCCCC3)nn2)C1O (stereo not drawn) |
